{"source": "patent US20260199273A1", "about": "“Compounds for the Treatment of Neuromuscular Disorders” (NMD PHARMA A/S, priority 2022, published 2026)", "data": [{"target": "T1, CIC-1 ion channel (Rattus norvegicus, UniProt P35524)", "T1 construct": "from tissue; host or cells: whole soleus muscle of 12-14 week old Wistar rats", "T1 sequence (P35524 1-994)": "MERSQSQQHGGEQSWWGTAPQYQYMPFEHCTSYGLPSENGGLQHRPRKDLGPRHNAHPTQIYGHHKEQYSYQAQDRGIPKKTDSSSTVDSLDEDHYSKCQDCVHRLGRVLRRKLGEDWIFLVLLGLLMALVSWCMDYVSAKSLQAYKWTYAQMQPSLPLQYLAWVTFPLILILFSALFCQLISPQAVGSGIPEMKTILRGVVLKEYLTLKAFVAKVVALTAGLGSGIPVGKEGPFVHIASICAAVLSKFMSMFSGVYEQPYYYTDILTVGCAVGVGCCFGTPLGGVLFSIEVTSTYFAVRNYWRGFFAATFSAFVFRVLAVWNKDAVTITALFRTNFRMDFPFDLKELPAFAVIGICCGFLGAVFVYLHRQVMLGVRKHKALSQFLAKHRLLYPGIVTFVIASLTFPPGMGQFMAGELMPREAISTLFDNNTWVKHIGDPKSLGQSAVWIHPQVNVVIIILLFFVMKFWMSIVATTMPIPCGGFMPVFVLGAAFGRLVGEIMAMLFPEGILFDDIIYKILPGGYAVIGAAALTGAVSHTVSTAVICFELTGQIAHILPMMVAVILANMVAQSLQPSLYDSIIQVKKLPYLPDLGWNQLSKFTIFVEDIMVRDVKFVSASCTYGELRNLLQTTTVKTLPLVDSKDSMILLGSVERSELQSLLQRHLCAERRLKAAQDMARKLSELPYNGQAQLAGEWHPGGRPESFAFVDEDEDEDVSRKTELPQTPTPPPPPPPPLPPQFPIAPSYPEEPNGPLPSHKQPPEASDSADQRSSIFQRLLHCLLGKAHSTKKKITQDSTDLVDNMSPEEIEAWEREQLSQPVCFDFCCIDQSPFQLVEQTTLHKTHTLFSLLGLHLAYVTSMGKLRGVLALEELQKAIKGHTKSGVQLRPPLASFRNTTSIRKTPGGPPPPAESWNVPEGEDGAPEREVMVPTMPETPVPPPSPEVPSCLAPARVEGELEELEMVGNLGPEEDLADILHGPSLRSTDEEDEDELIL", "assay": "Electrophysiological measurement of compound inhibition of CIC-1 in rat muscle (Gm in soleus fibres, three micro-electrodes)", "assay_type": "cell-based", "conditions": "Gm in individual fibres of whole rat soleus muscles, approx. 30° C., four increasing compound concentrations; read-out: Potency Range (EC50, inhibition of CIC-1 ion channel)", "procedure": "Apparent CIC-1 affinity was reported by the concentration of compound at which 50% of the compound's full inhibition of CIC-1 was observed (EC50) (see also WO2019/115777).\nExperimentally, Gm was measured in individual fibres of whole rat soleus muscles using a three micro-electrodes technique described in this example and in full detail elsewhere (Riisager et al., Determination of cable parameters in skeletal muscle fibres during repetitive firing of action potentials. Journal of Physiology, 2014, 592, 4417-4429). Briefly, intact rat soleus muscles were dissected out from 12-14 week old Wistar rats and placed in an experimental chamber that was perfused with a standard Krebs Ringer solution containing 122 mM NaCl, 25 mM NaHCO3, 2.8 mM KCl, 1.2 mM KH2PO4, 1.2 mM MgSO4, 1.3 mM CaCl2, 5.0 mM D-glucose. During experiments, the solution was kept at approx. 30° C. and continuously equilibrated with a mixture of 95% O2 and 5% CO2, pH ~7.4. The experimental chamber was placed in Nikon upright microscope that was used to visualize individual muscle fibres and the three electrodes (glass pipettes filled with 2 M potassium citrate). For Gm measurements, the electrodes were inserted into the same fibre with known inter-electrode distances of 0.35-0.5 mm (V1-V2, X1) and 1.1-1.5 mm (V1-V3, X3). The membrane potential of the impaled muscle fibre was recorded by all electrodes. Two of the electrodes were furthermore used to inject 50 ms current pulses of −30 nA. […] The steady state voltage deflection at each distance was divided by the magnitude of current injected (−30 nA) and the resulting transfer resistances were plotted against inter-electrode distance and the data was fitted to a mono-exponential function from which Gm could be calculated using linear cable theory.\nTo establish a dose response relationship, Gm was first determined in 10 muscle fibres in the absence of compound and then at four increasing compound concentrations with Gm determinations in 5-10 fibres at each concentration. The average Gm values at each concentration were plotted against compound concentration and the data was fitted to sigmoidal function to obtain an EC5o value.", "units": {"EC50": "µM"}, "values": [{"smiles": "Cc1cc2c(c(C(=O)O)c1F)CCCC2", "note": "[Compound A-49, 2-Fluoro-3-methyl-5,6,7,8-tetrahydronaphthalene-1-carboxylic acid]", "EC50": "0.2 to 2"}, {"smiles": "O=C(O)c1c(Cl)c(Cl)cc2c1CCCC2", "note": "[Compound A-30, 2,3-Dichloro-5,6,7,8-tetrahydronaphthalene-1-carboxylic acid]", "EC50": "0.2 to 2"}, {"smiles": "O=C(O)c1c(F)c(Cl)cc2c1CCC2", "note": "[Compound A-63, 6-Chloro-5-fluoro-2,3-dihydro-1H-indene-4-carboxylic acid]", "EC50": "2 to 10"}]}, {"tested_on": "isolated rat soleus nerve-muscle preparations", "assay": "Measurement of force in an in vitro model: recovery of nerve-stimulated contractile force after tubocurarine", "conditions": "40 min, 10 μM of test compound, after 40 mins of compound exposure, tubocurarine (115 nM) for 90 minutes, read-out: Point increase (%): percentage increase of initial force that was restored", "procedure": "(§1) In one aspect, the invention relates to a method for recovery of force in muscles with neuromuscular dysfunction, said method comprising administering a compound or a composition as defined herein to a subject in need thereof. The term “recovery of force in muscles with neuromuscular dysfunction” as used herein refers to the ability of a compound to recover contractile force in nerve-stimulated healthy rat muscle after exposure to submaximal concentration (115 nM) of tubocurarine for 90 minutes.\n(§2) Recovery of force is quantified as the percentage of the force prior to tubocurarine that is recovered after addition of the compound. In one embodiment, said recovery of force is >5%, such as >10%, such as >15%, such as >20%, such as >25%, such as >30%, such as >35%.\n(§3) The current disclosure relates to compounds that inhibit CIC-1 ion channels and increase muscle excitability and thereby improve muscle function in clinical conditions where muscle activation is failing. Such conditions result in loss of contractile function of skeletal muscle, weakness and excessive fatigue. In this series of experiments the compounds were tested for their ability to restore contractile function of isolated rat muscle when the neuromuscular transmission had been compromised akin to neuromuscular disorders.\n(§4) Experimentally, soleus muscles from 4-5 week old rats were isolated with the motor nerve remaining attached. The nerve-muscle preparations were mounted in experimental setups that enabled electrical stimulation of the motor nerve. Stimulation of the motor nerve led to activation of the muscle fibres and ensuing force production that was recorded. The nerve-muscle preparations were also in these experiments incubated in the standard Krebs Ringer (see example 15) and the solution was heated to 30° C. and continuously equilibrated with a mixture of 95% O2 and 5% CO2, pH ~7.4.\n(§5) After mounting the nerve-muscle preparation in the experimental setup, the contractile function of the muscle was initially assessed under the control conditions. Sub-maximal concentration of tubocurarine (115 nM), an acetylcholine receptor antagonist, was then added to the experimental bath to impose partial inhibition of the ability of the motor nerve to activate the muscle fibres. The experimental condition mimics the failing neuromuscular transmission in a range of neuromuscular disorders. After addition of tubocurarine the contractile force declined over the next 90 minutes to 10-50% of the control force. The test compound was then added to obtain the required compound concentration in the bath and the contractile force recovered was measured. To quantify the ability of the compound to restore force the percentage of the initial force that was restored was determined after 40 mins of compound exposure and the point increase is reported in Tables 3 to 7.", "units": {"activation at 10 µM": "%"}, "values": [{"smiles": "Cc1cc2c(c(C(=O)O)c1F)CCCC2", "note": "[Compound A-49, 2-Fluoro-3-methyl-5,6,7,8-tetrahydronaphthalene-1-carboxylic acid]", "activation at 10 µM": 40}, {"smiles": "O=C(O)c1c(Cl)c(Cl)cc2c1CCCC2", "note": "[Compound A-30, 2,3-Dichloro-5,6,7,8-tetrahydronaphthalene-1-carboxylic acid]", "activation at 10 µM": 45}, {"smiles": "O=C(O)c1c(F)c(Cl)cc2c1CCC2", "note": "[Compound A-63, 6-Chloro-5-fluoro-2,3-dihydro-1H-indene-4-carboxylic acid]", "activation at 10 µM": 28}, {"smiles": "COc1c(Cl)cc2c(c1C(=O)O)CCCO2", "note": "[Compound A-79, 7-Chloro-6-methoxy-5-chromancarboxylic acid]", "activation at 10 µM": 34}, {"smiles": "O=C(O)c1c(Br)c(Cl)cc2c1CCCC2", "note": "[Compound A-66, 2-Bromo-3-chloro-5,6,7,8-tetrahydronaphthalene-1-carboxylic acid]", "activation at 10 µM": 25}, {"smiles": "CN1CCCc2cc(F)c(Cl)c(C(=O)O)c21", "note": "[Compound A-77, 7-Chloro-6-fluoro-1-methyl-1,2,3,4-tetrahydro-8-quinolinecarboxylic acid]", "activation at 10 µM": 18}, {"smiles": "CCOc1c(Cl)cc2c(c1C(=O)O)CCCC2", "note": "[Compound A-82, 3-Chloro-2-ethoxy-5,6,7,8-tetrahydro-1-naphthoic acid]", "activation at 10 µM": 61}, {"smiles": "O=C(O)c1c(Cl)c(Br)cc2c1CCCC2", "note": "[Compound A-67, 3-bromo-2-chloro-5,6,7,8-tetrahydronaphthalene-1-carboxylic acid]", "activation at 10 µM": 25}, {"smiles": "CC1(C)CCc2cc(F)c(Cl)c(C(=O)O)c2O1", "note": "[Compound A-75, 7-Chloro-6-fluoro-2,2-dimethyl-8-chromancarboxylic acid]", "activation at 10 µM": 10}]}, {"tested_on": "isolated rat soleus nerve-muscle preparations", "assay": "Measurement of force in an in vitro model: recovery of nerve-stimulated contractile force after tubocurarine", "conditions": "40 min, 25 μM of test compound, after 40 mins of compound exposure, tubocurarine (115 nM) for 90 minutes, read-out: Point increase (%): percentage increase of initial force that was restored", "procedure": "as §1, §2, §3, §4, §5", "units": {"activation at 25 µM": "%"}, "values": [{"smiles": "O=C(O)c1c(F)c(Cl)cc2c1CCN2Cc1ccccc1", "note": "[Compound A-76, 1-Benzyl-6-chloro-5-fluoro-4-indolinecarboxylic acid]", "activation at 25 µM": 45}, {"smiles": "O=C(O)c1c(Cl)c(F)cc2c1SCCC2", "note": "[Compound A-64, 7-Chloro-6-fluoro-3,4-dihydro-2H-1-benzothiopyran-8-carboxylic acid]", "activation at 25 µM": 34}, {"smiles": "O=C(O)c1c(F)c(Cl)cc2c1OCCC2Cc1ccccc1", "note": "(centres unmarked) [Compound A-78, 4-Benzyl-6-chloro-7-fluoro-8-chromancarboxylic acid]", "activation at 25 µM": 35}, {"smiles": "O=C(O)c1c(Cl)c(F)cc2c1CCC2", "note": "[Compound A-62, 5-Chloro-6-fluoro-2,3-dihydro-1H-indene-4-carboxylic acid]", "activation at 25 µM": 14}]}, {"tested_on": "isolated rat soleus nerve-muscle preparations", "assay": "Measurement of force in an in vitro model: recovery of nerve-stimulated contractile force after tubocurarine", "conditions": "40 min, 50 μM of test compound, after 40 mins of compound exposure, tubocurarine (115 nM) for 90 minutes, read-out: Point increase (%): percentage increase of initial force that was restored", "procedure": "as §1, §2, §3, §4, §5", "units": {"activation at 50 µM": "%"}, "values": [{"smiles": "Cc1cc2c(c(C(=O)O)c1F)CCCO2", "note": "[Compound A-58, 6-Fluoro-7-methyl-3,4-dihydro-2H-1-benzopyran-5-carboxylic acid]", "activation at 50 µM": 48}, {"smiles": "Cc1c(Cl)cc2c(c1C(=O)O)OCC2", "note": "[Compound A-12, 5-Chloro-6-methyl-2,3-dihydro-1-benzofuran-7-carboxylic acid]", "activation at 50 µM": 19}, {"smiles": "O=C(O)c1c2c(cc(Cl)c1OC(F)(F)F)CCC2", "note": "[Compound A-11, 6-Chloro-5-(trifluoromethoxy)-2,3-dihydro-1H-indene-4-carboxylic acid]", "activation at 50 µM": 31}, {"smiles": "O=C(O)c1c2c(cc(Cl)c1OCF)CCC2", "note": "[Compound A-7, 6-Chloro-5-(fluoromethoxy)-2,3-dihydro-1H-indene-4-carboxylic acid]", "activation at 50 µM": 36}, {"smiles": "O=C(O)c1c(F)c(C(F)(F)F)cc2c1CCCC2", "note": "[Compound A-60, 2-Fluoro-3-(trifluoromethyl)-5,6,7,8-tetrahydronaphthalene-1-carboxylic acid]", "activation at 50 µM": 21}, {"smiles": "O=C(O)c1c(F)c(Cl)cc2c1OCC2", "note": "[Compound A-43, 5-Chloro-6-fluoro-2,3-dihydro-1-benzofuran-7-carboxylic acid]", "activation at 50 µM": 25}, {"smiles": "Cc1c(Br)cc2c(c1C(=O)O)CCC2", "note": "[Compound A-2, 6-Bromo-5-methyl-2,3-dihydro-1H-indene-4-carboxylic acid]", "activation at 50 µM": 19}, {"smiles": "O=C(O)c1c(F)c(I)cc2c1CCCC2", "note": "[Compound A-55, 2-Fluoro-3-iodo-5,6,7,8-tetrahydronaphthalene-1-carboxylic acid]", "activation at 50 µM": 42}, {"smiles": "COc1c(F)cc2c(c1C(=O)O)C(Cc1ccccc1)CCO2", "note": "(centres unmarked) [Compound A-81, 4-Benzyl-7-fluoro-6-methoxy-5-chromancarboxylic acid]", "activation at 50 µM": 19}, {"smiles": "Cc1cc2c(c(C(=O)O)c1Cl)CCCCC2", "note": "[Compound A-34, 2-chloro-3-methyl-6,7,8,9-tetrahydro-5H-benzo[7]annulene-1-carboxylic acid]", "activation at 50 µM": 20}, {"smiles": "COc1cc2c(c(C(=O)O)c1F)OCCC2Cc1ccccc1", "note": "(centres unmarked) [Compound A-80, 4-Benzyl-7-fluoro-6-methoxy-8-chromancarboxylic acid]", "activation at 50 µM": 22}]}, {"tested_on": "isolated rat soleus nerve-muscle preparations", "assay": "Measurement of force in an in vitro model: recovery of nerve-stimulated contractile force after tubocurarine", "conditions": "40 min, 100 μM of test compound, after 40 mins of compound exposure, tubocurarine (115 nM) for 90 minutes, read-out: Point increase (%): percentage increase of initial force that was restored", "procedure": "as §1, §2, §3, §4, §5", "units": {"activation at 100 µM": "%"}, "values": [{"smiles": "CN1CCCc2c1cc(Cl)c(F)c2C(=O)O", "note": "[Compound A-45, 7-Chloro-6-fluoro-1-methyl-1,2,3,4-tetrahydroquinoline-5-carboxylic acid]", "activation at 100 µM": 38}, {"smiles": "O=C(O)c1c(Cl)c(Cl)cc2c1CN(Cc1ccccc1)C2", "note": "[Compound A-68, 2-Benzyl-5,6-dichloro-2,3-dihydro-1H-isoindole-4-carboxylic acid]", "activation at 100 µM": 40}]}]}
